Values after ≈ are worked out from the molar mass of the structure shown.
System: Jurkat
Assay: Cytotoxicity against human Jurkat cells after 72 hrs by MTT assay
Format: functional, cell-based

Compared with `CC(=O)N[C@H]1[C@H](O[C@H]2CC[C@]3(C)[C@H]4CC=C5[C@@H]6CC(C)(C)[C@@H](O)C[C@]6(C(=O)O)[C@H](O)C[C@@]5(C)[C@]4(C)CC[C@H]3C2(C)C)O[C@H](CO[C@@H]2O[C@H](C)[C@H](O)[C@H](O)[C@H]2O[C@@H]2OC[C@@H](O)[C@H](O)[C@H]2O)[C@@H](O)[C@@H]1O`, `C=C[C@@](C)(CC/C=C(\CO)C(=O)O[C@H]1C[C@]2(C(=O)O[C@@H]3O[C@H](CO)[C@@H](O)[C@H](O)[C@H]3O[C@@H]3O[C@@H](C)[C@H](O[C@@H]4O[C@@H](CO)[C@H](O)[C@H]4O)[C@@H](O[C@@H]4O[C@H](CO)[C@@H](O)[C@H](O)[C@H]4O)[C@H]3O)[C@H](O)C[C@]3(C)C(=CC[C@@H]4[C@@]5(C)CC[C@H](O[C@@H]6O[C@H](CO[C@@H]7O[C@H](C)[C@H](O)[C@H](O)[C@H]7O[C@@H]7OC[C@@H](O)[C@H](O)[C@H]7O)[C@@H](O)[C@H](O)[C@H]6NC(C)=O)C(C)(C)[C@@H]5CC[C@]43C)[C@@H]2CC1(C)C)O[C@@H]1O[C@H](C)[C@@H](O)[C@H](O)[C@H]1O` [JULIBROSIDE J29] is lower in IC50: > 100 µg/mL for the first, 5.8 µg/mL (≈ 3.05 µM) for the second.

First: CC1(C)C[C@H]2C3=CC[C@@H]4[C@@]5(C)CC[C@H](O)C(C)(C)[C@@H]5CC[C@@]4(C)[C@]3(C)C[C@@H](O)[C@@]23C[C@@H]1OC3=O
Second: C=C[C@](C)(O)CC/C=C(\C)C(=O)O[C@H]1[C@H](O)[C@@H](O)[C@H](O[C@@](C)(C=C)CC/C=C(\CO)C(=O)O[C@H]2C[C@]3(C(=O)O[C@@H]4O[C@H](CO)[C@@H](O)[C@H](O)[C@H]4O[C@@H]4O[C@@H](C)[C@H](O[C@@H]5O[C@@H](CO)[C@H](O)[C@H]5O)[C@@H](O[C@@H]5O[C@H](CO)[C@@H](O)[C@H](O)[C@H]5O)[C@H]4O)[C@H](O)C[C@]4(C)C(=CC[C@@H]5[C@@]6(C)CC[C@H](O[C@@H]7O[C@H](CO[C@@H]8O[C@H](C)[C@H](O)[C@H](O)[C@H]8O[C@@H]8OC[C@@H](O)[C@H](O)[C@H]8O)[C@@H](O)[C@H](O)[C@H]7NC(C)=O)C(C)(C)[C@@H]6CC[C@]54C)[C@@H]3CC2(C)C)O[C@@H]1C [AVICIN G]
The IC50 of the first is higher: > 100 µg/mL for the first, 0.22 µg/mL (≈ 0.106 µM) for the second.

`C=C[C@](C)(O)CC/C=C(\CO)C(=O)O[C@H]1[C@H](O)[C@@H](O)[C@H](O[C@@](C)(C=C)CC/C=C(\CO)C(=O)O[C@H]2C[C@]3(C(=O)O[C@@H]4O[C@H](CO)[C@@H](O)[C@H](O)[C@H]4O[C@@H]4O[C@@H](C)[C@H](O[C@@H]5O[C@@H](CO)[C@H](O)[C@H]5O)[C@@H](O[C@@H]5O[C@H](CO)[C@@H](O)[C@H](O)[C@H]5O)[C@H]4O)[C@H](O)C[C@]4(C)C(=CC[C@@H]5[C@@]6(C)CC[C@H](O[C@@H]7O[C@H](CO[C@@H]8O[C@H](C)[C@H](O)[C@H](O)[C@H]8O[C@@H]8OC[C@@H](O)[C@H](O)[C@H]8O)[C@@H](O)[C@H](O)[C@H]7NC(C)=O)C(C)(C)[C@@H]6CC[C@]54C)[C@@H]3CC2(C)C)O[C@@H]1C` [AVICIN D] showed an IC50 of 0.58 µg/mL (≈ 0.278 µM).

Source: ChEMBL document CHEMBL1146528, “Isolation and structures of avicins D and G: in vitro tumor-inhibitory saponins derived from Acacia victoriae” (J Nat Prod, 2003)
